Source: patent publication US12606541B2, “PPARg modulators and methods of use” (Eisai R&D Management Co., Ltd., priority 2020, dated 2026)

Target: T1, His6-TEV-PPARγ-(234-505) (Homo sapiens, UniProt P37231)
T1 construct: The His6-TEV-PPARγ-(234-505) protein for assay was expressed and purified; TEV cleavage site (N); made in house
T1 sequence (P37231 234-505): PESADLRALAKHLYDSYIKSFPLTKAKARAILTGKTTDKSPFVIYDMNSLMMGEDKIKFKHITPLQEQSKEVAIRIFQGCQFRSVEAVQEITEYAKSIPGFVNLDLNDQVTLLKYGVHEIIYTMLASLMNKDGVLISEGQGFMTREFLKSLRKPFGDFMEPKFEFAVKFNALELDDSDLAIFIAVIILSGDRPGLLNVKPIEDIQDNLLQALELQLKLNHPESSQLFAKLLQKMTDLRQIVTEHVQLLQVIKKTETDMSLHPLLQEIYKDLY
Assay: TR-FRET Assay to Measure Co-R Peptide Recruitment to PPARγ
Assay type: biochemical
Conditions: Co-R peptide recruitment to PPARγ; read-out: TR-FRET AC50
Outline: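 Corepressor recruitment is measured by adding terbium-labeled anti-His antibody and FITC SMRT-ID2 peptide, at 5 and 200 nM final, after a 20-minute room-temperature protein–compound incubation. After one further hour, signal is converted to percent response between DMSO and 500 nM T0070907 wells.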

AC50, > 1000 nM:
COc1cc(-c2cc(C(=O)N3CCC(C(=O)NCc4cc(Cl)ccn4)CC3)n[nH]2)c(Cl)cn1 [1-[5-(5-chloro-2-methoxypyridin-4-yl)-1H-pyrazole-3-carbonyl]-N-[(4-chloropyridin-2-yl)methyl]piperidine-4-carboxamide]
COc1cc(-c2cc(C(=O)N3CCC(C(=O)NC4CC(F)(F)C4)CC3)n[nH]2)c(Cl)cn1 [1-[5-(5-chloro-2-methoxypyridin-4-yl)-1H-pyrazole-3-carbonyl]-N-(3,3-difluorocyclobutyl)piperidine-4-carboxamide]
COc1cc(-c2cc(C(=O)N3CCC(C(=O)NCc4cnc5nccn5c4)CC3)n[nH]2)c(Cl)cn1 [1-[5-(5-chloro-2-methoxypyridin-4-yl)-1H-pyrazole-3-carbonyl]-N-({imidazo[1,2-a]pyrimidin-6-yl}methyl)piperidine-4-carboxamide]
O=C(NCc1ccccc1F)C1CCN(C(=O)c2cc(-c3ccncc3)[nH]n2)CC1 [N-[(2-fluorophenyl)methyl]-1-[5-(pyridin-4-yl)-1H-pyrazole-3-carbonyl]piperidine-4-carboxamide]
CNc1cc(-c2cc(C(=O)N3CCC(C(=O)NC4CCC(C)CC4)CC3)n[nH]2)ccn1 (stereo not shown) [1-{5-[2-(methylamino)pyridin-4-yl]-1H-pyrazole-3-carbonyl}-N-(4-methylcyclohexyl)piperidine-4-carboxamide]
O=C(N[C@H]1CC[C@H](c2ccccc2)CC1)C1CCN(C(=O)c2cc(-c3ccncc3)[nH]n2)CC1
COc1cc(-c2cc(C(=O)N3CCC(C(=O)Nc4cncc(C)n4)CC3)n[nH]2)c(Cl)cn1 [1-[5-(5-chloro-2-methoxypyridin-4-yl)-1H-pyrazole-3-carbonyl]-N-(6-methylpyrazin-2-yl)piperidine-4-carboxamide]
COc1cc(-c2cc(C(=O)N3CCC(C(=O)NC45CC(F)(C4)C5)CC3)n[nH]2)c(Cl)cn1 [1-[5-(5-chloro-2-methoxypyridin-4-yl)-1H-pyrazole-3-carbonyl]-N-{3-fluorobicyclo[1.1.1]pentan-1-yl}piperidine-4-carboxamide]
COc1cc(-c2cc(C(=O)N3CCC(C(=O)NCc4cn(C)cn4)CC3)n[nH]2)c(Cl)cn1 [1-[5-(5-chloro-2-methoxypyridin-4-yl)-1H-pyrazole-3-carbonyl]-N-[(1-methyl-1H-imidazol-4-yl)methyl]piperidine-4-carboxamide]
COc1cc(-c2cc(C(=O)N3CCC(C(=O)NCc4nnc5ccccn45)CC3)n[nH]2)c(Cl)cn1 [1-[5-(5-chloro-2-methoxypyridin-4-yl)-1H-pyrazole-3-carbonyl]-N-({[1,2,4]triazolo[4,3-a]pyridin-3-yl}methyl)piperidine-4-carboxamide]
COc1cc(-c2cc(C(=O)N3CCC(C(=O)NCc4cnccn4)CC3)n[nH]2)c(Cl)cn1 [1-[5-(5-chloro-2-methoxypyridin-4-yl)-1H-pyrazole-3-carbonyl]-N-[(pyrazin-2-yl)methyl]piperidine-4-carboxamide]
COc1cc(-c2cc(C(=O)N3CCC(C(=O)NCCn4ccccc4=O)CC3)n[nH]2)c(Cl)cn1 [1-[5-(5-chloro-2-methoxypyridin-4-yl)-1H-pyrazole-3-carbonyl]-N-[2-(2-oxo-1,2-dihydropyridin-1-yl)ethyl]piperidine-4-carboxamide]
CS(=O)(=O)N1CCC(NC(=O)C2CCN(C(=O)c3cc(-c4ccncc4)[nH]n3)CC2)CC1 [N-(1-methanesulfonylpiperidin-4-yl)-1-[5-(pyridin-4-yl)-1H-pyrazole-3-carbonyl]piperidine-4-carboxamide]
